This is an account of results in patent publication US20130197002A1, “B[…] TREATING VISUAL DISORDERS MEDIATED BY CENTRAL VISUAL P[…] THE EYE” (ALLERGAN, INC., priority 2012, published 2013).

This test has as its system rat visual cortex slices. Briefly: Long-term potentiation (LTP) in visual cortex slice. Type of test: cell-based. As to the method: Long-Term Potentiation in Visual Cortex Slice
Following decapitation of the anesthetized rat, the brain was rapidly removed and immersed in ice-cold artificial cerebrospinal fluid (ACSF) containing (in mM) NaCl 124, KCl 3, KH2PO4 1.25, CaCl2 3.4, MgSO4 2.5, NaHCO3 26, and D-glucose 10. A block of visual cortex was created by removing the frontal ⅔ portion of the brain and the cerebellum. Coronal visual cortex slices of 350 μm thick were prepared from young adult (200-300 g) male Sprague-Dawley rats using a vibratome (VT 1000 S; Leica). The slices were maintained in an interface recording chamber perfused with preheated ACSF. Slices were continuously perfused with this solution at a rate of 1.00-1.50 ml/min while the surface of the slices was exposed to warm, humidified 95% O2/5% CO2 and maintained at 31±1° C. Visual cortex slices were allowed to recover for 1 hr before recording began. A single stimulating and recording electrode was placed in layer IV and III, respectively, to generate and record field excitatory postsynaptic potentials (fEPSPs). Pulses were administered at 0.05 Hz using a current that produced a fEPSP that is 50% of the maximum spike free response. An input-output (IO) curve is done to determine the stimulation needed to achieve a stable baseline. Following a 15 min stable baseline recording period, a train of 5 theta bursts (each burst containing four pulses at 100 Hz with an inter-burst interval of 200 ms) is delivered to the slice. This is repeated 2 additional times with a 1 minute inter-train interval, and the level of LTP was recorded for at least 30 min. Changes in amplitude of the synaptic response were used to measure the extent of LTP, since the amplitude was determined to be the more consistent parameter than the slope of the response. Control LTP values were obtained from slices not treated with drug. Different slices were used to study drug effects on LTP. Brimonidine was infused after 15 min baseline recording for duration of 20 minutes followed by LTP induction. […] LTP was recorded for at least 30 min after induction.

Turning to `CCC1(c2cnc[nH]2)Cc2ccccc2C1` [atipamezole], under “atipamezole plus brimonidine, FIG. 1 right panel”, the “brimonidine-induced enhancement of LTP in presence of alpha 2 pan antagonist” value is on record as “fully suppressed”.
`Brc1c(N=C2NCCN2)ccc2nccnc12` [brimonidine, (5-bromo-quinoxalin-6-yl)-imidazolidin-2-ylidene-amine]: the “effect on LTP” value (brimonidine administered to visual cortex slices, FIG. 1 left panel) was “marked and dose-dependent enhancement of LTP”. In addition, the “threshold dose for enhancement of LTP” value (visual cortex slices, FIG. 1 left panel) is 3 nM.
